# Measured values: US20220040212A1, “ORAL REHYDRATION COMPOSITION WITH OLIGOSACCHARIDES” (ABBOTT LABORATORIES, priority 2013, published 2022)
# Several values for one entry are separate records, joined by “and”; a condition that tells them apart may be missing. Equal values may be shown once.
# Columns and labels:
# [1] = Stability of oligosaccharides in oral rehydration solution, before/after retort sterilization and 3 weeks after (HPAEC); format: physicochemical; conditions: for 6′-SL / Lactose / Sialic acid / % Theoretical 6′-SL: 6′-SL sample, pH 3.5; for % Theoretical 6′-SL: fortification 0.2 g/L
# Method: A study was conducted to determine the relative stabilities of GOS, FOS, 2′-FL, 6′-SL, and LNnT in an oral rehydration solution. A master batch of product was prepared (shown in Table 1), the pH adjusted to approx. 4.25, and subsequently divided into five sub-batches.
# Oligosaccharide ingredients were added to each of the sub-batches in amounts shown Table 2, and the pH of each sub-batch was subsequently adjusted to 3.5 with citric acid. The solutions were filled into 1 L plastic bottles, capped and retorted with a cook temperature of 217° F. for 25 minutes. Duplicate samples were collected immediately prior to sterilization and within 24 h after sterilization. Prior to sample analysis, the unsterile samples were stored at refrigerated temperature (˜40° F.) and the sterilized samples were held ambient temperature.
# Samples were analyzed by HPAEC using a Dionex ICS3000 Ion Chromatography System (Thermo Scientific, Inc., Sunnyvale, Calif.) equipped with a pulsed amperometric detector comprised of a AgCl reference electrode, gold working electrode, and CarboPac PA1 guard (4×50 mm) and analytical columns (4×250 mm). Mobile phases were degassed and pressurized with 3 to 5 psi helium, and oligosaccharides eluted from the columns using various gradients detailed in Tables 3-5 at a flow rate of 1.0 mL/min. The column and detector were held at 20±2° C. Oligosaccharide identification and concentration were determined from quadratic fit (not forced through the origin) standard curves. […]
# 2′-FL fortification was calculated to be 0.2 g/L. Testing samples were reconstituted at 20 mL to 100 ml, with water, and then filtered using a 0.2 μm PES membrane syringe filter.
# LNnT fortification was calculated to be 0.256 g/L. Testing samples were reconstituted at 20 mL to 100 ml, with water, and then filtered using a 0.2 μm PES membrane syringe filter.
# 6′-SL fortification was calculated to be 0.2 g/L. Testing samples were reconstituted at 20 mL to 100 mL with water, and then filtered using a 0.2 μm PES membrane syringe filter.
# [2] = Stability of 2′-FL, LNnT and 6′-SL in an ORC over time (0 D to 14 weeks); format: physicochemical; conditions: for % Remaining * (6′-SL): vs target fortification
# Method: Another study was performed to determine the stability of 2′-FL, LNnT, and 6′-SL in an ORC over time (e.g., 1 week, 3 weeks, 6 weeks, and 14 weeks).
# Sample Preparation: A master batch with a pH of 4.25 is sub-divided. The oligosaccharides are added to the respective ORC in an amount of 0.2 g/L for 2′-FL and 6′-SL, LNnT was fortified in an amount of 0.256 g/L. The pH was then adjusted from 4.25 to 3.5 by addition of citric acid. Prior to sterilization, samples are collected to evaluate oligosaccharide levels. The formulas were then delivered into 1 L bottles and subjected to heat sterilization and allowed to cool to room temperature.
# The data on day 0 was collected in duplicate for samples prior to sterilization (unsterile) and after sterilization (sterile), thereafter the data was collected only on the sterilized samples. […] The slight fluctuation in lactose and lactulose levels are likely due to method variability.
# The data on day 0 was collected in duplicate for samples prior to sterilization (unsterile) and after sterilization (sterile), thereafter the data was collected only on the sterilized samples.
# The data on day 0 was collected in duplicate for samples prior to sterilization (unsterile) and after sterilization (sterile), thereafter the data was collected only on the sterilized samples. […] At 14 weeks, the concentration was 2.3% of the target fortification amount.
# [3] = 3-week after sterilization, average
# [4] = 3-week after sterilization, samples 1, 2
# [5] = sterile (after retort 217° F. 25 min), samples 1, 2
# [6] = sterile (after retort), average
# [7] = 6′-SL ORC pH 3.5, 0 D, sterile, average
# [8] = 6′-SL ORC pH 3.5, 0 D, sterile, samples 1, 2
# [9] = 6′-SL ORC pH 3.5, 0 D, unsterile, average
# [10] = 6′-SL ORC pH 3.5, 0 D, unsterile, samples 1, 2
# [11] = 6′-SL ORC pH 3.5, 3 WK, sterile, average
# [12] = 6′-SL ORC pH 3.5, 3 WK, sterile, samples 1, 2
# [13] = 6′-SL ORC pH 3.5, 6 WK, sterile, average
# [14] = 6′-SL ORC pH 3.5, 6 WK, sterile, samples 1, 2
# [15] = 6′-SL ORC pH 3.5, 14 WK, sterile, average
# [16] = 6′-SL ORC pH 3.5, 14 WK, sterile, samples 1, 2
compound,measurement,setting,value
"CC(=O)N[C@H]1[C@H]([C@H](O)[C@H](O)CO)O[C@@](OC[C@H]2O[C@@H](O[C@H]3[C@H](O)[C@@H](O)[C@H](O)O[C@@H]3CO)[C@H](O)[C@@H](O)[C@H]2O)(C(=O)O)C[C@@H]1O [6′-SL, 6′-sialyllactose]",6′-SL,[1]; [3],10.5 mg/L
same,Lactose,[1]; [3],153 mg/L
same,Sialic acid,[1]; [3],82.9 mg/L
same,% Theoretical 6′-SL,[1]; [3],5.27%
same,6′-SL,[1]; [4],10.5 mg/L and 10.6 mg/L
same,Lactose,[1]; [4],152.2 mg/L and 154 mg/L
same,Sialic acid,[1]; [4],82.89 mg/L and 82.96 mg/L
same,% Theoretical 6′-SL,[1]; [4],5.249% and 5.3%
same,6′-SL,[1]; [5],10.39 mg/L and 11.0 mg/L
same,Lactose,[1]; [5],149.4 mg/L
same,Sialic acid,[1]; [5],83.46 mg/L and 83.79 mg/L
same,6′-SL,[1]; [6],10.7 mg/L
same,Lactose,[1]; [6],149 mg/L
same,Sialic acid,[1]; [6],83.6 mg/L
same,6′-SL,"[1]; unsterile, average",173 mg/L
same,Lactose,"[1]; unsterile, average",24.6 mg/L
same,Sialic acid,"[1]; unsterile, average",4.95 mg/L
same,6′-SL,"[1]; unsterile, samples 1, 2",170.8 mg/L and 174.5 mg/L
same,Lactose,"[1]; unsterile, samples 1, 2",24.22 mg/L and 24.90 mg/L
same,Sialic acid,"[1]; unsterile, samples 1, 2",5.055 mg/L and 4.842 mg/L
same,"Further loss 3-weeks after sterilization, relative to sterilized sample (in words)","[1]; oral rehydration solution pH 3.5, 3-weeks after sterilization",No additional loss
same,Loss of oligosaccharide during sterilization (in words),"[1]; oral rehydration solution pH 3.5, retort 217° F. 25 min",Significant loss
same,6′-SL,[2]; [7],10.7 mg/L
same,Lactose,[2]; [7],149 mg/L
same,Sialic acid,[2]; [7],83.6 mg/L
same,% Remaining * (6′-SL),[2]; [7],5.35%
same,6′-SL,[2]; [8],10.39 mg/L and 11 mg/L
same,Lactose,[2]; [8],149.4 mg/L
same,Sialic acid,[2]; [8],83.46 mg/L and 83.79 mg/L
same,% Remaining * (6′-SL),[2]; [8],5.195% and 5.502%
same,6′-SL,[2]; [9],173 mg/L
same,Lactose,[2]; [9],24.6 mg/L
same,Sialic acid,[2]; [9],4.95 mg/L
same,% Remaining * (6′-SL),[2]; [9],86.3%
same,6′-SL,[2]; [10],170.8 mg/L and 174.5 mg/L
same,Lactose,[2]; [10],24.22 mg/L and 24.9 mg/L
same,Sialic acid,[2]; [10],5.055 mg/L and 4.842 mg/L
same,% Remaining * (6′-SL),[2]; [10],85.42% and 87.24%
same,6′-SL,[2]; [11],10.5 mg/L
same,% Remaining ** (6′-SL),[2]; [11],5.27%
same,Lactose,[2]; [11],153 mg/L
same,Sialic acid,[2]; [11],82.9 mg/L
same,6′-SL,[2]; [12],10.5 mg/L and 10.6 mg/L
same,% Remaining ** (6′-SL),[2]; [12],5.249% and 5.3%
same,Lactose,[2]; [12],152.2 mg/L and 154.0 mg/L
same,Sialic acid,[2]; [12],82.89 mg/L and 82.96 mg/L
same,6′-SL,[2]; [13],10.5 mg/L
same,% Remaining ** (6′-SL),[2]; [13],5.26%
same,Lactose,[2]; [13],172 mg/L
same,Sialic acid,[2]; [13],98 mg/L
same,6′-SL,[2]; [14],10.47 mg/L and 10.59 mg/L
same,% Remaining ** (6′-SL),[2]; [14],5.234% and 5.295%
same,Lactose,[2]; [14],170.5 mg/L and 174.4 mg/L
same,Sialic acid,[2]; [14],98.77 mg/L and 97.2 mg/L
same,6′-SL,[2]; [15],4.6 mg/L
same,% Remaining ** (6′-SL),[2]; [15],2.31%
same,Lactose,[2]; [15],152 mg/L
same,Sialic acid,[2]; [15],91.7 mg/L
same,6′-SL,[2]; [16],4.66 mg/L and 4.57 mg/L
same,% Remaining ** (6′-SL),[2]; [16],2.330% and 2.285%
same,Lactose,[2]; [16],149.5 mg/L and 155.1 mg/L
same,Sialic acid,[2]; [16],91.10 mg/L and 92.22 mg/L
same,Concentration as % of the target fortification amount,"[2]; 6′-SL ORC pH 3.5, at 14 weeks",2.3%
same,Discoloration relative to the other test compositions,"[2]; ORC pH 3.5, heat sterilized",Slight discoloration
same,Change of oligosaccharide level over the course of the study (in words),"[2]; ORC pH 3.5, heat sterilized, 0 D to 14 weeks",significant decrease
